Assay results published in article PMC10394516, “The pharmacokinetic profile of brensocatib and its effect on pharmacodynamic biomarkers including NE, PR3, and CatG in various rodent species” (Frontiers in Pharmacology, 2023).

Experiments:
PR3 [1] = assay: Bone marrow PR3 activity after repeated dosing, BALB/c mice; format: in vivo; conditions: for Reduction of PR3 activity vs vehicle / Change From Vehicle Control (%) PR3: 7 days
Protocol: (§1) Briefly, animals were weighed and randomized into different treatment groups. In total, three different dosing levels of brensocatib were tested in each species and strain; each QD dosing level was equivalent to 1.5-times the matching daily BID dose. For BID dosing, the second daily dose was administered 8-h post the morning dose. C57BL/6 mice were dosed either BID or QD for 7 consecutive days at 0/0, 0.5/0.75, 2/3, and 20/30 mg/kg/day (BID/QD). BALB/c mice were dosed for 7 consecutive days at 0/0, 0.2/0.3, 2/3, and 20/30 mg/kg/day (BID/QD). SD rats were dosed for 9 consecutive days at 0/0, 0.2/0.3, 2/3, and 20/30 mg/kg/day (BID/QD). Wistar rats were dosed for 7 consecutive days at 0/0, 0.2/0.3, 2/3, and 20/30 mg/kg/day (BID/QD).
(§2) At the completion of the study, animals were sacrificed 16–24 h post their final dose. The hind limb bones (femurs and tibias) were collected at necropsy for bone marrow analysis of NSP activities by kinetic enzymatic assays ([Basso et al., 2022]). See section Quantification of Bone Marrow NSP Activities for details.
(§3) For the mice, each animal had the femurs and tibias of both hind limbs harvested. For the rat, the femur and tibia from a single hind limb per animal was harvested. Bones were kept on wet ice until processing for bone marrow collection. In brief, bone cutters were used to cut the epiphysis (knobby ends) off the long bones to expose the bone marrow filled cavity. Each bone cavity was then flushed with 5 mL/bone (mouse) or 10 mL/bone (rat) of ice-cold RPMI media through a […] and collected in a 50-mL conical tube. Cells were spun down at 2,500 × g at 4°C for 5 min and the supernatant was aspirated. After which, bone marrow cells were lysed with 1X red blood cell (RBC) lysis buffer (Abcam, ab204733) to eliminate contaminating RBCs and washed with PBS to remove any residual RBC lysis buffer. The resulting white blood cells (WBC) were subsequently lysed with 1% (v/v) Triton X-100 in PBS. Lysates were added to 96-well plates and stored at −80°C until NSP analyses.
(§4) Bone marrow lysates prepared as described above were diluted and plated onto 96-well assay plates to quantify NSP activities as described previously ([Basso et al., 2022]). Briefly, peptide substrates for NE (N-Methoxysuccinyl-Ala-Ala-Pro-Val-7-amido-4-methylcoumarin; Sigma; St. Louis, MO; Excitation/Emission at 350/450 nm), PR3 ((7-Methoxycoumarin-4-yl)acetyl-lysyl-(picolinoyl)-Tyr-Asp-Ala-Lys-Gly-Asp-N-3-(2-4-dinitrophenyl)-2-3-diaminopropyonyl-NH2); GenScript; Piscataway, NJ; Excitation/Emission at 340/430 nm), and CatG (N-Succinyl-Ala-Ala-Pro-Phe p nitroanilide; Sigma; Absorbance at 405 nm) were added at a final assay concentration of 100 μM, 40 μM, and 200 μM, respectively, and either fluorescence or absorbance was quantified using a Synergy microplate reader (BioTek; Winooski, VT). The specific NSP activity in each sample was calculated as the total activity minus the activity in the presence of a specific NSP inhibitor (if used), including elastase inhibitor (Abcam) for NE, sivelestat (Abcam) for PR3, and cathepsin G inhibitor I (Cayman Chemical; Ann Arbor, MI) for CatG. NSP concentrations were interpolated based on their activities relative to the standard curves created using active human NE protein (Sigma), active human PR3 protein (Sigma), and active human CatG protein (Sigma), respectively. Due to unavailability of commercial mouse and/or rat NE, PR3, and CatG proteins, the corresponding human proteins were used instead since their catalytic ability is considered to be conserved across species. A portion of each cell lysate sample was retained for protein quantification using a Pierce™ BCA Protein Assay Kit (Thermo Fisher). The NSP activities were normalized for the cell lysate protein concentrations.
(§5) The Pierce™ BCA Protein Assay Kit was used to measure the total protein of the samples after lysis to allow for subsequent normalization. […]

CatG = assay: Bone marrow CatG activity after repeated dosing, BALB/c mice; format: in vivo; conditions: for Reduction of CatG activity vs vehicle / Change From Vehicle Control (%) CatG: 7 days
Protocol: as §1, §2, §3, §4, §5

NE = assay: PD recovery study, bone marrow NE activity, C57BL/6 mice; format: in vivo; conditions: for Percent change from vehicle NE: bone marrow
Protocol: A PD recovery study was performed in female C57BL/6 mice dosed BID for 8 consecutive days. Mice were dosed by oral gavage either with vehicle (0 mg/kg) or 5 mg/kg brensocatib (BID; 10 mg/kg/day). After 8 consecutive days of dosing, the animals were maintained without further treatment until prescribed sacrifice (days: 1, 3, 6, 8, and 10 days post final dose). Plasma was collected from animals during the first 24 h of dosing at −0.5 (half-hour prior to dosing), 1, 8, 9, and 24 h post initial dose. Note that the 8- and 24-h plasma samples were prior to the afternoon dose and prior to the second day dose, respectively. Plasma was used for PK analysis via LC-MS/MS. On prescribed days, animals were sacrificed, and the hind limb bones (femurs and tibias) were collected at necropsy for bone marrow analysis of NSP activities by kinetic enzymatic assays.
as §3, §4
The Pierce™ BCA Protein Assay Kit was used to measure the total protein of the samples after lysis to allow for subsequent normalization. The manufacturer’s instructions for use were followed when performing this assay on a portion of the sample lysates which were diluted in PBS, the same diluent as used for preparation of the standard. Plates were read on the Biotek Synergy plate reader with Gen5 software.

PR3 [2] = test system: PR3; design: method as in Cipolla et al., 2023; conditions: Phase 2 trial in NCFBE (WILLOW); ref Cipolla et al., 2023; cited from earlier work
[3] = BID highest dose (20 mg/kg/day)
[4] = highest dose level 20/30 (BID/QD) mg/kg/day
[5] = oral BID 0.2 mg/kg/day, 16 h post final dose
[6] = oral BID 2 mg/kg/day, 16 h post final dose
[7] = oral BID 20 mg/kg/day, 16 h post final dose
[8] = oral QD 0.3 mg/kg/day, 24 h post final dose
[9] = oral QD 3 mg/kg/day, 24 h post final dose
[10] = oral QD 30 mg/kg/day, 24 h post final dose
[11] = after 8 days of 5 mg/kg BID, curve fit with free min and max

In the case of Cn1c(=O)oc2ccc(-c3ccc(C[C@@H](C#N)NC(=O)[C@@H]4CNCCCO4)cc3)cc21 [brensocatib], the “Reduction of PR3 activity vs vehicle” value (PR3 [1]; [3]) is reported as 70%, the “Reduction of PR3 activity vs vehicle” value (PR3 [1]; QD highest dose (30 mg/kg/day)) is reported as 52% and the “Combined BID and QD percentage reduction, PR3” value (PR3 [1]; [4]) is reported as 61%. For the same molecule, the “Change From Vehicle Control (%) PR3” value (PR3 [1]; [5]) was “+13% (p = 0.6435)”, the “Change From Vehicle Control (%) PR3” value (PR3 [1]; [6]) was −26% (p = 0.1243) and the “Change From Vehicle Control (%) PR3” value (PR3 [1]; [7]) was −70% (p < 0.0001). For the same molecule, the “Change From Vehicle Control (%) PR3” value (PR3 [1]; [8]) was −7% (p = 0.9149), the “Change From Vehicle Control (%) PR3” value (PR3 [1]; [9]) was −13% (p = 0.6769) and the “Change From Vehicle Control (%) PR3” value (PR3 [1]; [10]) was −52% (p = 0.0010). For the same molecule, the “Reduction of CatG activity vs vehicle” value (CatG; [3]) was 92%, the “Reduction of CatG activity vs vehicle” value (CatG; QD highest dose (30 mg/kg/day)) was 84% and the “Combined BID and QD percentage reduction, CatG” value (CatG; [4]) was 88%. The “Change From Vehicle Control (%) CatG” value (CatG; [5]) was −1% (p = 0.9993), the “Change From Vehicle Control (%) CatG” value (CatG; [6]) was −36% (p = 0.0165) and the “Change From Vehicle Control (%) CatG” value (CatG; [7]) was −92% (p < 0.0001). The “Change From Vehicle Control (%) CatG” value (CatG; [8]) was −2% (p = 0.9983), the “Change From Vehicle Control (%) CatG” value (CatG; [9]) was −39% (p = 0.0058) and the “Change From Vehicle Control (%) CatG” value (CatG; [10]) was −84% (p < 0.0001). The “Recovery: Time to reach 50% recovery, NE” value (NE; [11]) was 0.8 days, the “Recovery: Time to reach 90% recovery, NE” value (NE; [11]) was 4.9 days and the “Recovery: Time to reach 95% recovery, NE” value (NE; [11]) was 5.6 days. For the same molecule, the “Recovery: Time to reach 100% recovery, NE” value (NE; [11]) was 6.6 days, the “Percent change from vehicle NE” value (NE; 1 day recovery after 8 days of 5 mg/kg BID) was −49% (p < 0.0001) and the “Percent change from vehicle NE” value (NE; 3 days recovery after 8 days of 5 mg/kg BID) was −4% (p = 0.9544). The “Percent change from vehicle NE” value (NE; 6 days recovery after 8 days of 5 mg/kg BID) was −20% (p = 0.0067), the “Percent change from vehicle NE” value (NE; 8 days recovery after 8 days of 5 mg/kg BID) was −2% (p = 0.9986) and the “Percent change from vehicle NE” value (NE; 10 days recovery after 8 days of 5 mg/kg BID) was “+15% (p = 0.0607)”. For the same molecule, the “sputum PR3 activity” value (PR3 [2]) was “Dose-dependent reductions”.
